Laboratory results: patent publication US6248309A, “Gums containing antimicrobial agents” (priority 1999, dated 2001)
Values joined by “and” are separate entries in the source; they are usually repeats but may differ in a detail not shown here. Equal values may be shown once. Where a name gives a salt, the structure may show the parent alone. Read-outs that look alike come from different tables or passages of the source.

What was measured:
[1] = test system: Actinomyces viscosus (AV); assay: MIC of agents alone, in pairs and in three-agent combination (Example 2); assay type: cell-based, Actinomyces viscosus ATCC 19246; settings: agent used alone
Description: (§1) In addition, the example describes how the MIC of antimicrobial agents in the combinations are reduced compared to the MIC of those antimicrobial agents alone and the MIC of those agents in various pairings. Numerous combinations of the antimicrobial agents described herein were combined to form combinations comprising three antimicrobial agents or triplets. Each of the formed triplets included either cedarwood oil or berberine hydrochloride.
(§2) The protocol used was a variation of the procedure described above in Example 1. The assay was carried out in the two-dimensional array of a 96-well plate. In order to evaluate three agents, two of the agents were paired against the third agent. For example, varying concentrations of antimicrobial agent A plus antimicrobial agent B versus varying concentrations of antimicrobial agent C were evaluated on one 96-well plate. The procedure was repeated with the other two possible pairings, i.e., A+C with B, and B+C with A. Accordingly, each triplet required three assays in order to assess each of the three possible pairings.
(§3) The bacterial innoculum was prepared as described in Example 1.
(§4) A sterile polystyrene 96-well plate was used to dilute the antimicrobial agents A, B and C. Using aseptic technique, 100 microliters of distilled water was placed in each test well. The dilution scheme was separated into two parts. First, the dilution of the combined agents A and B and then second, the dilution of agent C. A dilution of agents A and B was accomplished by placing 50 microliters of stock solution for agent A in the first well of each column. Next, 50 microliters of stock solution for agent B was added to each of the first wells of each column. Accordingly, the first well of each column included 50 microliters of stock solution for agent A and 50 microliters of stock solution for agent B. 100 microliters from the first row in each column was then transferred to the next well in the column and so on down the column. Each transfer was a one-half dilution of the preceding concentration.
(§5) The dilution of antimicrobial agent C was accomplished by adding 100 microliters of agent C stock solution to the first well of each row. 100 microliters from the first well in each row was then transferred to the next well and so on across the row of test wells. Each transfer was a one-half dilution of the preceding concentration. FIG. 1 is a schematic illustration of the concentrations of antimicrobial agents A, B and C derived from the dilution scheme described above. […] The concentration of agent C decreases across a row from left to right. […]
(§6) The 96-well plate was then incubated under conditions that varied by microorganism. […] The plate was then read for microbial growth with a spectrophotometer by optical density. […]

[2] = test system: Streptococcus sanguis (SS); assay: as above; assay type: cell-based, Streptococcus sanguis ATCC 49295; settings: agent used alone
Description: as §1, §2, §3
A sterile polystyrene 96-well plate was used to dilute the antimicrobial agents A, B and C. Using aseptic technique, 100 microliters of distilled water was placed in each test well. The dilution scheme was separated into two parts. First, the dilution of the combined agents A and B and then second, the dilution of agent C. A dilution of agents A and B was accomplished by placing 50 microliters of stock solution for agent A in the first well of each column. Next, 50 microliters of stock solution for agent B was added to each of the first wells of each column. […]
as §6

[3] = test system: Campylobacter rectus (CR); assay: as above; assay type: cell-based; settings: read-out: MIC, individual agent alone
Description: as §1, §2, §3
A sterile polystyrene 96-well plate was used to dilute the antimicrobial agents A, B and C. […]
as §6

[4] = test system: Fusobacterium nucleatum (FN); assay: as above; assay type: cell-based, Fusobacterium nucleatum ATCC 10933
Description: as §1, §2, §3, §4, §5, §6

[5] = test system: Porphyromonas gingivalis (PG); assay: as above; assay type: cell-based, Porphyromonas gingivalis ATCC 33277
Description: as §1, §2, §3, §4, §5, §6

[6] = test system: Streptococcus mutans (SM); assay: as above; assay type: cell-based, Streptococcus mutans ATCC 25175; settings: agent used alone
Description: as §1, §2, §3, §4, §5, §6

[7] = for Above MIC in Saliva (Y/N): concentration in saliva at any time above MIC relative to Porphyromonas gingivalis
Method: (§11) Ten volunteers chewed 2.7 grams samples of each gum formulation and provided saliva samples at intervals and the gum bolus at the end of the 25 minute chewing period. High pressure liquid chromatography and gas chromatography were used to analyze the gum bolus and saliva non-volatile and volatile components, respectively.
(§12) Saliva samples were collected from each of the individuals prior to chewing 2.7 grams of gum, and at 1.0, 2.5, 5.0, 10.0, and 25.0 minutes while chewing the gum. The saliva samples were refrigerated until analysis. The gum bolus that remained after 25 minutes was saved and extracted immediately or stored refrigerated until extraction for analysis.
(§13) Samples were Vortex-mixed in Multi-tube vortex mixer for one minute and then centrifuged at top speed in clinical centrifuge for two minutes. Supernatants were carefully transferred to 1 milliliter glass shell vials and capped. Analysis was carried out either by isocratic elution for glabridin-only samples, or gradient elution for the samples containing the glycyrrhizic and 18β-glycyrrhetinic acids using high pressure liquid chromatography. Glabridin concentrations were converted to GLY concentrations by taking the weight percent glabridin in GLY to be 2.74 percent.
(§14) The calibration curve was prepared using spiked blank saliva.
(§15) For saliva, the essential oils of menthol, cedarwood oil, geraniol and Rosmarinus officianalis were determined by capillary gas chromatography. The split ratio was 25:1. The injection volume was 2 μL. Four hundred μL of saliva was extracted from the 1 milliliter of ethyl acetate containing an internal standard (hexadecane) in 1.5 milliliter Eppendorf tubes. After centrifugation, the organic layer was injected directly into the Hewlett-Packard 6890 gas chromatograph. […] For this reason, only the samples from 0 to 10 minutes were analyzed. A cleanup gradient was run from 190 to 300° C. every fifth sample to remove less volatile interferences from the column.

[8] = clinical; settings: human, in vivo
Method: as §11, §12, §13, §14, §15

[9] = assay type: in vivo, human volunteers
Method: The saliva samples were refrigerated until analysis.
To either 2.7 grams unchewed gum sample or the remaining bolus of chewed gum, was added 3.0 millileters of internal standard (Hesperetin) in methanol, 6.0 milliliters hexane and 3.0 milliliters distilled water. Samples were homogenized using a Polytron Homogenizer model PT10/35 from Brinkmann Instruments, fitted with a PTA10TS generator for at least 30 seconds on ice, or until no lumps of non-dispersed gum were visible in the sample. Samples were then centrifuged in a Dynac Tabletop Centrifuge at top speed for ten minutes. The lower, amber, aqueous/methanol layer were then filtered through 25 millimeter, 0.45 micrometer nylon Acrodisc syringe filters from Gelman into 4 milliliter autosampler vials and tightly capped with polytetrafluorothylene lined septum in open-top screw caps. These samples were then analyzed using high pressure liquid chromatography for glabridin and/or glycyrrhizic and 18β-glycyrrhetinic acid, and were quantitated against a 4-point linear curve prepared by spiking approximately 2.7 grams unchewed samples of Wrigley Extra Sugarfree Peppermint gum with known levels of purified glabridin, glycyrrhizic acid monoammonium salt and 18β-glycyrrhetinicacid.
For the analysis of the gum bolus, both chewed and unchewed, a Polytron Homogenizer, described above was used. The gum sample was placed in a heavy wall glass tube. Internal standard ([…]) ethyl acetate ([…]) and water ([…]) were added. The sample was homogenized for approximately 30 seconds, or until no particles could be seen. The tubes were then centrifuged for 10 minutes on a clinical centrifuge at maximum speed. The supernatant was injected directly onto the gas chromatograph. The oven program was modified to allow resolution of ROF1 components from those of the peppermint flavoring. The gas chromatograph was calibrated using a three point standard curve to quantify the following components: menthol (flavor); geraniol (oil geraniol); cedrene, thujopsene (RC1); pinene, cineol, camphor, bornyl acetate (ROF1). The initial temperature was decreased from 140° C. to 100° C. The temperature gradient was changed from 10° C./minute to 4° C./minute. The split ratio was 50:1, and injection volume was 1 μL as per the method. A cleanup gradient was run every fifth sample as described previously.
A recovery study was performed in triplicate using blank Wrigley's Peppermint Gum (chewed and unchewed) spiked with stand and solution. Recovery was calculated relative to a direct standard consisting of spike solution without sample matrix.

[10] = test system: Porphyromonas gingivalis; assay: MIC of each agent used in Example 5; assay type: cell-based; settings: read-out: MIC relative to Porphyromonas gingivalis used in Example 5
Method: The MIC Range was determined against a standard panel of five organisms that included Actinomyces viscosus, Fusobacterium nucleatum, Porphyromonas gingivalis, Streptococcus mutans, and Stretococcus sanguis. The starting dilution was 0.1 percent in methanol. The MIC used in this Example 5 was the MIC for each agent relative to Porphyromonas gingivalis.

[11] = test system: Fusobacterium nucleatum (FN); assay: MIC of agents alone and in two-agent combination (Example 1); assay type: cell-based, Fusobacterium nucleatum ATCC 10933; settings: concentration of TB1 (agent A)
Method: (§7) The following example illustrates how the MIC of individual antimicrobial agents that are combined were determined and also illustrates how the MIC of the antimicrobial agents in combination were determined.
(§8) A microtiter plate was used to dilute the antimicrobial agents to varying concentrations in order to determine the MIC of those antimicrobial agents alone and the MIC of the agents when combined.
(§9) A bacterial culture was incubated at 37° C. Prior to the dilution of the antimicrobial agents as described below, the bacterial culture was spun down at 2,000 rpm into a pellet and resuspended in a solution of buffered phosphate. The innoculum was normalized with a spectrophotometer to an optical density at 550 nanometers of between 0.180-0.220 (equivalent to 5.0×10^7 colony forming units, CFU per milliliter). The innoculum was set aside until the completion of the antimicrobial agent dilution. […]
(§10) Following 48 hours of incubation, the incubated plate was read for microbial growth with a spectrophotometer by optical density (OD). The well containing the lowest dilution achievable for each agent with a spectrophotometer reading below 0.05 OD (i.e., no detectable microbial growth) was considered representative for the combination. The MIC for each agent in the combination was determined by accounting for the starting stock solution concentration and the resulting dilutions in the 96-well plate. […]

[12] = test system: Actinomyces viscosus (AV); assay: as above; assay type: cell-based, Actinomyces viscosus ATCC 19246; settings: concentration of TB1 (agent A)
Method: as §7, §8, §9, §10

[13] = test system: Streptococcus mutans (SM); assay: as above; assay type: cell-based, Streptococcus mutans ATCC 25175; settings: concentration of TB1 (agent A)
Method: as §7, §8, §9, §10

[14] = test system: Streptococcus sanguis (SS); assay: as above; assay type: cell-based, Streptococcus sanguis ATCC 49295; settings: concentration of TB1 (agent A)
Method: as §7, §8, §9, §10

[15] = test system: Porphyromonas gingivalis (PG); assay: as above; assay type: cell-based, Porphyromonas gingivalis ATCC 33277; settings: concentration of TB1 (agent A)
Method: as §7, §8, §9, §10

Compound: COc1ccc2cc3[n+](cc2c1OC)CCc1cc2c(cc1-3)OCO2 [BX1, 5,6-dihydro-9,10-dimethoxybenzo[g]-1,3-benzodioxolo [5,6-a] quinolizinium]
- MIC, individual agent alone ([1]; AV): 62.5 µg/mL
- MIC ([1]; Actinomyces viscosus, read-out: MIC, individual agent alone, AV): 31.3 µg/mL
- MIC, individual agent alone ([2]; SS): 62.5 µg/mL
- MIC ([2]; Streptococcus, read-out: MIC, individual agent alone, SS): 31.3 µg/mL
- MIC [3]: 125 µg/mL
- MIC, individual agent alone ([4]; FN, agent used alone): 62.5 µg/mL
- MIC ([4]; Fusobacterium nucleatum, read-out: MIC, individual agent alone): 62.5 µg/mL
- MIC, individual agent alone ([5]; PG, agent used alone): 15.6 µg/mL
- MIC ([5]; Porphyromonas gingivalis, read-out: MIC, individual agent alone): 15.6 µg/mL
- MIC, individual agent alone ([6]; SM): 31.3 µg/mL and 62.5 µg/mL
- MIC ([6]; Streptococcus mutans, read-out: MIC, individual agent alone, SM): 31.3 µg/mL

Compound: CC1(C)[C@@H](O)CC[C@]2(C)[C@H]3C(=O)C=C4[C@@H]5C[C@@](C)(C(=O)O)CC[C@]5(C)CC[C@@]4(C)[C@]3(C)CC[C@@H]12 [GA, 18β-Glycyrrhetinic acid]
- Above MIC in Saliva (Y/N) [7]: No
- concentration at 1 min [8]: 1.8 µg/mL
- concentration at 2.5 min [8]: 1.5 µg/mL
- concentration at 5 min [8]: 1.6 µg/mL
- concentration at 10 min [8]: 1.8 µg/mL
- concentration at 25 min [8]: 2.3 µg/mL
- Release from Chewed Gum Bolus after 25 min ([9]; in vivo): 15%

Compound: CC1(C)[C@@H](O[C@H]2O[C@H](C(=O)O)[C@@H](O)[C@H](O)[C@H]2O[C@@H]2O[C@H](C(=O)O)[C@@H](O)[C@H](O)[C@H]2O)CC[C@]2(C)[C@H]3C(=O)C=C4[C@@H]5C[C@@](C)(C(=O)O)CC[C@]5(C)CC[C@@]4(C)[C@]3(C)CC[C@@H]12 [GR, Glycyrrhizic Acid, Monoammonium salt]
- Above MIC in Saliva (Y/N) [7]: Yes
- Rate of release from gum ([7]; human, in vivo): released from a gum base less quickly and over a longer period of time
- Maintenance of concentration in oral cavity above MIC ([7]; in words, released from a gum composition): maintain a concentration in the oral cavity at a level above the MIC
- concentration at 1 min [8]: 3100 µg/mL
- concentration at 2.5 min [8]: 111 µg/mL
- concentration at 5 min [8]: 55 µg/mL
- concentration at 10 min [8]: 30 µg/mL
- concentration at 25 min [8]: 10 µg/mL
- Release from Chewed Gum Bolus after 25 min ([9]; in vivo): 85%

Compound: CC1CCC(C(C)C)C(O)C1 (stereo not shown) [Menthol]
- Concentration of Antimicrobial Agent in Saliva ([7]; 25 minutes, GLY formulations 1,3-6, RC1 5,6, GRA 4-6, GA, GR #6, menthol 1-6): below detection limits
- Above MIC in Saliva (Y/N) [7]: No
- concentration at 1 min [8]: 25 µg/mL
- concentration at 2.5 min [8]: 22 µg/mL
- concentration at 5 min [8]: 24 µg/mL
- concentration at 10 min [8]: 24 µg/mL
- MIC [10]: 125 µg/mL
- Release from Chewed Gum Bolus after 25 min ([9]; 2.7 g peppermint gum chewed 25 min, ten volunteers): 50%

Compound: N-cocamidopropyl-dimethylglycine [TB1]
- MIC of Cocamidopropyl Dimethylglycine alone and when combined with Agent B [11]: 45.4 µg/mL
- MIC of Cocamidopropyl Dimethylglycine alone and when combined with Agent B [12]: 28.9 µg/mL
- MIC of Cocamidopropyl Dimethylglycine alone and when combined with Agent B [13]: 22.8 µg/mL
- MIC of Cocamidopropyl Dimethylglycine alone and when combined with Agent B [14]: 30.2 µg/mL
- MIC of Cocamidopropyl Dimethylglycine alone and when combined with Agent B [15]: 16.8 µg/mL
